Results published in US20050209157A1, “Short bioactive peptides and methods for their use” (priority 2001, published 2005).
Where two headings read alike, the source gives them in different places. No end group written: not given here.

Columns and labels:
S. epidermidis C621 = assay type: cell-based, Staphylococcus epidermidis; settings: mean of three; 16 to 20 hours at 35° C.
S. pyogenes M76 = experiment: Antimicrobial assays II, NCCLS broth microdilution MIC; assay type: cell-based, Streptococcus pyogenes; settings: mean of three; 16 to 20 hours at 35° C.
S. pyogenes ATCC19615 = experiment: as above; assay type: cell-based, Streptococcus pyogenes; settings: mean of three, in µg/mL
P. acne ATCC 6919 = experiment: as above; assay type: cell-based, Propionibacterium acnes; settings: mean of three, in µg/mL
P. aeruginosa = assay type: cell-based, Pseudomonas aeruginosa; settings: P. aeruginosa H744; MIC of nalidixic acid with peptide at ¼ MIC
Outline: (§1)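 Synergy against efflux-mutant strains: two-fold dilutions of nalidixic acid or chloramphenicol tested with peptide held at ¼ of its MIC.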

P. aeruginosa H774 = assay type: cell-based, Pseudomonas aeruginosa; settings: P. aeruginosa H744; nalidixic acid + peptide at ¼ MIC; 0.5 or less = synergy
Outline: as §1

P. aeruginosa H374 = assay type: cell-based, Pseudomonas aeruginosa; settings: for MIC Cm-comb.: MIC of chloramphenicol with peptide at ¼ MIC; for MIC Nal-comb.: MIC of nalidixic acid with peptide at ¼ MIC; for FIC Index: 0.5 or less = synergy
Outline: as §1

S. aureus (MRSA) = assay type: cell-based, Staphylococcus aureus; settings: mean of three; 16 to 20 hours at 35° C.
WI38 = settings: MTT, 24 hours with peptide; normal fibroblast line
[1] = system: Staphylococcus aureus ATCC 6538; experiment: Antimicrobial assay I, MIC by OD measurement; assay type: cell-based; settings: 37° C. for 24 hours, absorbance 620 nm
[2] = system: Pseudomonas aeruginosa ATCC 9027; experiment: Antimicrobial assay I, MIC by OD measurement; assay type: cell-based; settings: 37° C. for 24 hours, absorbance 620 nm
S. pneumoniae C718 = experiment: Antimicrobial assays II, NCCLS broth microdilution MIC; assay type: cell-based, Streptococcus pneumoniae; settings: mean of three
in vitro [3] = assay type: cell-based, human; settings: human, human red blood cells, pH 7, hemolytic assay, concentration at 50% hemolysis, 1 hour at 37° C.; read-out: LD50
in vitro [4] = settings: human, WI38 normal lung fibroblast cells, LD50 WI38, WI38 normal lung fibroblast line, MTT, 24 hours with peptide
PC3 = experiment: Anti-cancer assay, MTT, LD50; assay type: cell-based; settings: 24 hours with peptide, prostate adenocarcinoma
Description: (§2) Numbers are LD50 values (μg/mL).

BMKC = experiment: Anti-cancer assay, MTT, LD50; assay type: cell-based; settings: BMKC cloned melanoma line, 24 hours with peptide
Description: as §2

MCF7 = experiment: Anti-cancer assay, MTT, LD50; assay type: cell-based; settings: MCF7 breast adenocarcinoma line, MTT, 24 hours with peptide
Description: as §2

HeLaS3 = experiment: Anti-cancer assay, MTT, LD50; assay type: cell-based; settings: 24 hours with peptide, cervical carcinoma
Description: as §2

SW480 = experiment: Anti-cancer assay, MTT, LD50; assay type: cell-based; settings: SW480 colon adenocarcinoma line, 24 hours with peptide
Description: as §2

H1299 = experiment: Anti-cancer assay, MTT, LD50; assay type: cell-based; settings: 24 hours with peptide, lung large cell carcinoma
Description: as §2

[5] = system: yeast (Saccharomyces cerevisiae); experiment: Antimicrobial assay I, yeast assay in RPMI 1640; assay type: cell-based; settings: RPMI 1640 media
S. pneumoniae C719 = experiment: Antimicrobial assays II, NCCLS broth microdilution MIC; assay type: cell-based, Streptococcus pneumoniae; settings: mean of three, in µg/mL
[6] = chloramphenicol + peptide at ¼ MIC
[7] = nalidixic acid + peptide at ¼ MIC, FIC=0.25+MIC comb/MIC alone

Substance | S. epidermidis C621 MIC (S. epidermidis C621) | S. pyogenes M76 MIC (S. pyogenes M76) | S. pyogenes MIC (S. pyogenes ATCC19615) | P. acne MIC (P. acne ATCC 6919) | MIC Nal-comb. (P. aeruginosa) | FIC Index (P. aeruginosa H774) | MIC Cm-comb. (P. aeruginosa H374) | MIC Nal-comb. (P. aeruginosa H374) | FIC Index (P. aeruginosa H374; [6]) | FIC Index (P. aeruginosa H374; [7]) | S. aureus (MRSA) MIC (S. aureus (MRSA)) | WI38 LD50 (WI38) | staph6538 (MIC) [1] | paerug9027 (MIC) [2] | S. pneumoniae MIC (S. pneumoniae C718) | HC50 at 1 h (in vitro [3]) | CC50 at 24 h (in vitro [4]) | PC3 LD50 (PC3) | LD50 BMKC (BMKC) | LD50 MCF7 (MCF7) | other results
FAKLLAKLAKKLL-NH2 [P43] | 2 µg/mL | 2 µg/mL | 2 | 2 | 624 µg/mL | 1.25 | 16 µg/mL | 5000 µg/mL | 1.25 | 1.25 | 4 µg/mL | 5 µg/mL | 5 µg/mL | 100 µg/mL | 8 µg/mL | 20 µg/mL | 5 µg/mL | 12 µg/mL | 7 µg/mL | 9 µg/mL | HeLaS3 LD50 (HeLaS3): 15 µg/mL; LD50 SW480 (SW480): 9 µg/mL; H1299 LD50 (H1299): 6 µg/mL; yeast (MIC or MFC) [5]: 25 µg/mL; S. pneumoniae MIC (S. pneumoniae C719): 4
FAKFLAKFLKKAL-NH2 [P111, FAKFLAKFLKKAL-NH2] | 4 µg/mL | 4 µg/mL | 2 | 4 | 624 µg/mL | 1.25 | 16 µg/mL | 2500 µg/mL | 1.25 | 0.75 | 8 µg/mL | 24 µg/mL | 5 µg/mL | 100 µg/mL | 16 µg/mL | 60 µg/mL | 24 µg/mL | 11 µg/mL | 26 µg/mL | 35 µg/mL | HeLaS3 LD50 (HeLaS3): 7 µg/mL; LD50 SW480 (SW480): 27 µg/mL; H1299 LD50 (H1299): 8 µg/mL; yeast (MIC or MFC) [5]: 200 µg/mL; S. pneumoniae MIC (S. pneumoniae C719): 4
KWKLFKKKTKLFKKFAKKLAKKL-NH2 [P73] | 4 µg/mL | 16 µg/mL | 16 | 4 | 624 µg/mL | 1.25 | 8 µg/mL | 2500 µg/mL | 0.75 | 0.75 | 16 µg/mL | 160 µg/mL | 50 µg/mL | 15 µg/mL | > 128 µg/mL | 90 µg/mL | 160 µg/mL | 97 µg/mL | 360 µg/mL | 150 µg/mL | HeLaS3 LD50 (HeLaS3): 270 µg/mL; LD50 SW480 (SW480): 70 µg/mL; H1299 LD50 (H1299): 115 µg/mL; yeast (MIC or MFC) [5]: 100 µg/mL; S. pneumoniae MIC (S. pneumoniae C719): 64
FAKLLAKLAKKVL-NH2 [P124] | 4 µg/mL | 16 µg/mL | 16 | 8 | 624 µg/mL | 1.25 | 16 µg/mL | 2500 µg/mL | 1.25 | 0.75 | 8 µg/mL | 21 µg/mL | 5 µg/mL | 100 µg/mL | > 128 µg/mL | 55 µg/mL | 21 µg/mL | 10 µg/mL | 10 µg/mL | 18 µg/mL | HeLaS3 LD50 (HeLaS3): 14 µg/mL; LD50 SW480 (SW480): 9 µg/mL; H1299 LD50 (H1299): 30 µg/mL; yeast (MIC or MFC) [5]: 100 µg/mL; S. pneumoniae MIC (S. pneumoniae C719): 64
